Measured values from patent publication US20130131161A1, “METHODS AND COMPOSITIONS FOR CARDIOVASCULAR DISEASES AND CONDITIONS” (priority 2009, published 2013).
“And” between values parts separate entries of the source, which are not always exact repeats. Identical values can stand only once.

System: eNOS
Assay: eNOS protein abundance in HUVECs by immunochemical methods (Example 2)
Format: cell-based, human
Conditions: for eNOS protein abundance (mean ± sd): pg/ug total protein; for Fold difference eNOS protein abundance (mean ± sd): (LA-419 5 μM)/(control)
Text: eNOS Activity and Protein Abundance Measurements
Using immunochemical methods, there was no change in any condition in relation to eNOS protein abundance, Tables ss-L1.

CC(=O)SC1COC2C(O[N+](=O)[O-])COC12 (stereo not drawn) [LA-419, S-(6-Nitro-oxi-hexahydro-furo[3,2-b]furan-3-1-il)thioacetate]
eNOS protein abundance % Change (mean ± sd) (5 μM LA-419, Intron 4 variant b/a, a/a, c/c (n=14)): 0.32 (9.26) % | eNOS protein abundance % Change (mean ± sd) (5 μM LA-419, Intron 4 variant b/b (n=31)): −1.78 (6.88) % | eNOS protein abundance (mean ± sd) (5 μM LA-419, G894T + T786C G/G + T/C, n=8): 6.27 (1.56) pg/ug | eNOS protein abundance (mean ± sd) (5 μM LA-419, G894T + T786C G/G + T/T, n=18): 6.17 (1.24) pg/ug | eNOS protein abundance (mean ± sd) (5 μM LA-419, G894T + T786C G/T + C/C, n=1): 7.25 (0) pg/ug | eNOS protein abundance (mean ± sd) (5 μM LA-419, G894T + T786C G/T + T/C, n=13): 5.59 (1.08) pg/ug | eNOS protein abundance (mean ± sd) (5 μM LA-419, G894T + T786C G/T + T/T, n=4): 5.82 (1.49) pg/ug | eNOS protein abundance (mean ± sd) (5 μM LA-419, G894T + T786C T/T + C/C, n=3): 6.47 (1.34) pg/ug | eNOS protein abundance (mean ± sd) (5 μM LA-419, G894T + T786C T/T + T/C, n=2): 4.52 (0.30) pg/ug | eNOS protein abundance (mean ± sd) (5 μM LA-419, G894T G/G, n=26): 6.20 (1.31) pg/ug | eNOS protein abundance (mean ± sd) (5 μM LA-419, G894T G/T & T/T, n=23): 5.72 (1.20) pg/ug | eNOS protein abundance (mean ± sd) (5 μM LA-419, G894T G/T, n=18): 5.73 (1.17) pg/ug | eNOS protein abundance (mean ± sd) (5 μM LA-419, G894T T/T, n=5): 5.69 (1.44) pg/ug | eNOS protein abundance (mean ± sd) (5 μM LA-419, Genotype Combination, n=31 (title: Combination = G/G + T/T, G/G + T/C, G/G/+C/C, G/T + T/T, G/T + T/C, G/T + C/C, T/T + T/C)): 5.86 (1.30) pg/ug | eNOS protein abundance (mean ± sd) (5 μM LA-419, Genotype Reference, n=18 (title: Reference group = T/T + C/C)): 6.17 (1.24) pg/ug | eNOS protein abundance (mean ± sd) (5 μM LA-419, Intron 4 a/a, n=3): 7.17 (1.19) pg/ug | eNOS protein abundance (mean ± sd) (5 μM LA-419, Intron 4 b/a, a/a, c/c, n=14): 6.31 (1.50) pg/ug | eNOS protein abundance (mean ± sd) (5 μM LA-419, Intron 4 b/a, n=10): 5.95 (1.56) pg/ug | eNOS protein abundance (mean ± sd) (5 μM LA-419, Intron 4 b/b, n=31): 5.75 (1.13) pg/ug | eNOS protein abundance (mean ± sd) (5 μM LA-419, Intron 4 c/c, n=1): 7.39 (0) pg/ug | eNOS protein abundance (mean ± sd) (5 μM LA-419, T-786C CC, n=4): 6.67 (1.16) pg/ug | eNOS protein abundance (mean ± sd) (5 μM LA-419, T-786C T/C & C/C, n=27): 5.87 (1.30) pg/ug | eNOS protein abundance (mean ± sd) (5 μM LA-419, T-786C T/C, n=23): 5.73 (1.29) pg/ug | eNOS protein abundance (mean ± sd) (5 μM LA-419, T-786C T/T, n=22): 6.11 (1.26) pg/ug | eNOS protein abundance % Change (mean ± sd) (5 μM LA-419 vs control, n=2): −4.89 (0.49) % | eNOS protein abundance % Change (mean ± sd) (5 μM LA-419 vs control, G894T G/G, n=26): −1.07 (8.07) % | eNOS protein abundance % Change (mean ± sd) (5 μM LA-419 vs control, G894T G/T, n=18): −0.79 (7.54) % | eNOS protein abundance % Change (mean ± sd) (5 μM LA-419 vs control, G894T T/T, n=5): −1.54 (6.56) % | eNOS protein abundance % Change (mean ± sd) (5 μM LA-419 vs control, Intron 4 a/a, n=3): 1.11 (10.89) % | eNOS protein abundance % Change (mean ± sd) (5 μM LA-419 vs control, Intron 4 b/a, n=10): 0.68 (9.65) % | eNOS protein abundance % Change (mean ± sd) (5 μM LA-419 vs control, Intron 4 b/b, n=31): −1.78 (6.88) % | eNOS protein abundance % Change (mean ± sd) (5 μM LA-419 vs control, Intron 4 c/c, n=1): −5.66 (0) % | eNOS protein abundance % Change (mean ± sd) (5 μM LA-419 vs control, Race Asian, n=1): −17.56 (0) % | eNOS protein abundance % Change (mean ± sd) (5 μM LA-419 vs control, Race Black, n=12): −5.95 (6.82) % | eNOS protein abundance % Change (mean ± sd) (5 μM LA-419 vs control, Race Caucasian, n=26): 2.50 (6.89) % | eNOS protein abundance % Change (mean ± sd) (5 μM LA-419 vs control, Race Hispanic, n=6): −1.16 (4.99) % | eNOS protein abundance % Change (mean ± sd) (5 μM LA-419 vs control, Race Not Reported, n=2): −4.62 (0.81) % | eNOS protein abundance % Change (mean ± sd) (5 μM LA-419 vs control, T-786C C/C, n=4): −6.82 (6.09) % | eNOS protein abundance % Change (mean ± sd) (5 μM LA-419 vs control, T-786C T/C, n=23): −0.37 (9.0) % | eNOS protein abundance % Change (mean ± sd) (5 μM LA-419 vs control, T-786C T/T, n=22): −0.64 (5.88) % | Fold difference eNOS protein abundance (mean ± sd) (Combination of all G894T + T-786C genotypes but G/G + T/T, n=31): 0.99 (0.09) | Fold difference eNOS protein abundance (mean ± sd) (Combination of all G894T + T-786C genotypes but T/T + C/C, n=46): 0.99 (0.08) | Fold difference eNOS protein abundance (mean ± sd) (G894T + T-786C G/G + T/C, n=8): 0.98 (0.12) | Fold difference eNOS protein abundance (mean ± sd) (G894T + T-786C G/G + T/T, n=18): 0.99 (0.06) | Fold difference eNOS protein abundance (mean ± sd) (G894T + T-786C G/T + C/C, n=1): 0.88 (0) | Fold difference eNOS protein abundance (mean ± sd) (G894T + T-786C G/T + T/C, n=13): 1.00 (0.07) | Fold difference eNOS protein abundance (mean ± sd) (G894T + T-786C G/T + T/T, n=4): 1.00 (0.08) | Fold difference eNOS protein abundance (mean ± sd) (G894T + T-786C T/T + C/C, n=3): 0.95 (0.06) | Fold difference eNOS protein abundance (mean ± sd) (G894T + T-786C T/T + T/C, n=2): 1.04 (0.01) | Fold difference eNOS protein abundance (mean ± sd) (G894T G/G & G/T, n=44): 0.99 (0.08) | Fold difference eNOS protein abundance (mean ± sd) (G894T G/G, n=26): 1.00 (0.08) and 0.99 (0.08) | Fold difference eNOS protein abundance (mean ± sd) (G894T G/T & T/T, n=23): 0.99 (0.07) | Fold difference eNOS protein abundance (mean ± sd) (G894T G/T, n=18): 0.99 (0.08) | Fold difference eNOS protein abundance (mean ± sd) (G894T T/T, n=5): 0.98 (0.07) | Fold difference eNOS protein abundance (mean ± sd) (Intron 4 a/a, n=3): 1.01 (0.11)
